These results are taken from US20260166182A1, “CYANINE-BASED FLUOROPHORES” (The General Hospital Corporation, priority 2022, published 2026).

One data set deals with PDAC (Pan02 cell line). Nature of the data set: Tumor targeting in Pan02 inoculated immune-deficient athymic nude mice. The class given is in vivo, mouse. The source says:
General NIR-II fluorescence imaging: A 640×512-pixel InGaAs camera (Ninox640, Raptor Photonics) and macro zoom lens (0-10×; Navitar Zoom 7000 with SWIR coating) along with 900, 1070, 1100, and 1200 nm long-pass (LP) filters from either Thorlab or Edmund optics were used to collect the NIR-II signal. InGaAs camera played a role as an open-air imaging system along with the support of the FLARE system. An 808 nm fiber-coupled diode laser ([…] at the sample) was used as an excitation source. Data acquisition was done using in-house developed software. The mice fur on the region of interest was shaved prior to imaging using a clipper and removed completely using a depilatory cream. 100 μL of SH1 in 5 w/v % BSA saline ([…]) was injected through the tail vein. Mice were imaged with intact skin using InGaAs camera. At least 3 mice were analyzed for each sample.
Statistical analysis: The fluorescence and background intensities of a region of interest over each tissue were quantified using customized imaging software and ImageJ v1.48 (National Institutes of Health, Bethesda, MD). The signal-to-background ratio (SBR) was calculated as SBR=fluorescence/background, where background was the fluorescence intensity of muscle. […] The differences among groups were determined using one-way ANOVA analysis to assess the statistical differences among more than two groups. […]

The nature of data set [1]: In vivo biodistribution and pharmacokinetics in CD-1 mice. Also noted: species or system mouse. The source says:
In vivo biodistribution and pharmacokinetics of SH dyes: Animals were housed in an AAALAC-certified facility and were studied under the supervision of MGH IACUC in accordance with the approved institutional protocol. Six-week-old CD-1 mice (male; 25-30 g) were purchased from Charles River Laboratories (Wilmington, MA). Mice were maintained under anesthesia with isoflurane and oxygen during the preparation prior to injection. The end of the tail was cut for blood collection. Before injection, blood was sampled in capillary tubes (Fisher Scientific, Pittsburgh, PA) as a reference. […] Mice were imaged using the in-house built NIR-II imaging system. After 24 h post-injection, mice were sacrificed to image organs. At least 3 mice were analyzed for each sample. Results were presented as an exponential decay curve using Prism software version 9.0.2 (GraphPad, San Diego, CA).

Data set [2] is described as follows: Serum protein binding kinetics (size exclusion column). The following applies: bovine, FBS/PBS 50/50 v/v % (serum proteins, mostly albumin), pH 7.4; within 30 min, FBS/PBS 50/50, 37° C. The class given is in vitro ADME. The protocol:
FIG. 15 Reaction kinetics of SH1, ICG, and IR-780 to serum proteins, mostly albumin. 50 nmol of each dye was mixed with 1 ml of FBS/PBS (pH 7.4) 50/50 v/v %, incubated at 37° C., and analyzed using a BioResolve size exclusion column (200 Å, 2.5 μm, 7.8×300 mm). The binding percentage was calculated by dividing by absorbance of bound dye at 24 h assuming the dyes can bind in maximum capacity in the protein at 24 h.
In general terms: SEC sorts molecules by how far they enter the pores of the column.

Another data set concerns LLC tumor. In words: Tumor histopathology with NIR fluorescence microscopy of resected LLC tumors. The class given is in vivo, mouse. Particulars: histological NIR images. The protocol: Tumor histopathology evaluation: […] After rinsing with PBS, the fixed sections were counterstained with nuclear fast red, dehydrated by ethanol, transferred into xylene, and finally mounted according to the standard protocol. To determine the tissue distribution of the NIR fluorophore, the dissected tissues were embedded in Tissue-Tek optimum cutting temperature compound (Sakura Finetek, Torrance, CA) without a pre-fixation step. The tissue block was frozen at −80° C. Frozen sections were cut at a thickness of 10 or 50 μm by a cryostat (Leica, Germany). Then, the tissue sections were stained with hematoxylin and eosin (H&E). The BioTek Cytation 5 (Winooski, VT) was used for pathological fluorescence imaging and observation.

Data set [3] in a line: In vivo biodistribution study of NIR fluorophores in CD-1 mice. Also noted: species or system mouse. The following applies: 25 nmol intravenous, 4 h post-injection; listed as 18. The protocol: In Vivo Biodistribution Study of NIR Fluorophores: Under the supervision of the MGH IACUC, animals were housed in an AAALAC-certified facility and studied according to institutional protocol #2016N000136. In preparation for injection, CD-1 mice (25-30 g, 6 weeks, Charles River Laboratories, Wilmington, MA) were anesthetized with isoflurane and oxygen. A 10 mM stock solution of NIR fluorophores was prepared in DMSO, and 25 nmol of each molecule was diluted in BSA-containing saline (5 wt/v %) for intraoperative imaging. After 4 h post-injection, mice were imaged. For each experiment, camera exposure time and image normalization were held constant.
Quantitative Analysis: The fluorescence and background intensity of a region of interest (ROI) over each tissue was quantified using ImageJ software (NIH, Bethesda, MD) version 1.45q. The signal-to-background ratio (SBR) was calculated as SBR=fluorescence/background, where background is the signal intensity of neighboring tissues such as muscle. All NIR fluorescence images for a particular fluorophore were normalized identically for all conditions of an experiment.

SMILES strings stand for the structures. “And” between values parts separate entries of the source, which are not always exact repeats. Identical values can stand only once. “Also recorded” adds a separate entry of the source. Bounds are passed on as bounds.

Usually half-life stands for the time needed for the level to fall by half in the phase considered. The fraction unbound is free concentration divided by total concentration. A lower fraction unbound goes with little free substance. Regarding `CCCCN1/C(=C/C=C2\CCCC(/C=C/C3=[N+](CCCC)c4ccc(Cl)cc4C3(C)C)=C2Cl)C(C)(C)c2cc(Cl)ccc21` [SH1, 1-butyl-2-((E)-2-((E)-3-(2-((E)-1-butyl-5-chloro-3,3-dimethylindolin-2-ylidene)ethylidene)-2-chlorocyclohex-1-en-1-yl)vinyl)-5-chloro-3,3-dimethyl-3H-indol-1-ium], the “tumor-to-muscle signal ratio (TMR)” value in the data set on PDAC (Pan02 cell line) was ~3.0 and 3.6. In data set [1] (1 μmol/kg intravenous), the pharmacokinetic model entry is “one-compartment model” and the “time to complete distribution” value is no more than 24 h. In addition, the organ distribution result in data set [1] (24 h post-injection) is “major distribution in the liver and spleen”. In addition, the half-life in data set [1] (male, CD-1, mouse, whole blood, 1 umol/kg, 1 μmol/kg intravenous, read-out: elimination blood half-life t½ (converted)) was 5.39 ± 1.53 h. In data set [2], this molecule gave a fraction unbound at 30 min, 50 μM of roughly 0.65. The “fluorescence signal location in resected tumor” value with LLC tumor was “strong fluorescence signals in the targeted tumor”. The tissue/organ signals entry in data set [3] was “high signals in the primary and secondary lymphoid tissues; also recorded: higher signals in the bone marrow, spleen, and lymph nodes”.
